According to patent US20060051316A1, “Remedy” (priority 2002, published 2006):

What was measured:
[1] = test system: BMP-2 production of human osteosarcoma cell strain HuO9; assay: Enhancing activity for BMP-2 production, enzyme immunoassay of culture medium; assay type: cell-based; conditions: for Enhancing Activity for BMP-2 Production: HuO9; for Enhancement of BMP-2 production (result in words): HuO9 cells
Protocol: Human osteosarcoma cell strain HuO9 was suspended in a DMEM medium (manufactured by Bio Whittaker) containing 10% fetal bovine serum (manufactured by Bio Whittaker) so as to have a concentration of 1×10^5 cells/ml. The suspension was put into a 96-well plate in an amount of 0.1 ml per well, and the cells were cultured sterilely. After the cells were cultured for 2 days, the medium was exchanged with a fresh medium. The fucoidan derived from Kjellmaniella crassifolia obtained in item (1) of Reference Example 1 was added thereto as a sample, and the cells were cultured for 48 hours. Next, the concentration of bone morphogenetic protein-2 (BMP-2) in the culture medium was measured with enzyme immunoassay method (BMP-2 Immunoassay: manufactured by GT). The enhancing activity for BMP-2 production was expressed by setting as a control one without addition of the sample, and defining the BMP-2 concentration in the cell culture medium (the amount of BMP-2 production of a cell) as 100%.

[2] = test system: Mouse embryo derived cell strain C3H10T1/2; assay: Induction of differentiation into osteoblasts, alkaline phosphatase activity in cells; assay type: cell-based; conditions: for Alkaline Phosphatase Activity: 7 days, C3H10T1/2, control = 100%, average of two experiments
Protocol: Mouse embryo derived cell strain C3H10T1/2 was suspended in a DMEM medium containing 10% fetal bovine serum so as to have a concentration of 3×10^4 cells/ml. The suspension was put into a 96-well plate in an amount of 0.1 ml per well, and the cells were cultured sterilely. After the cells were cultured for 3 days, the medium was exchanged with a fresh medium. Heparan sulfate, or the Chlorella sulfated polysaccharide fraction CSP-I or CPS-II obtained in Reference Example 4 was added thereto as a sample, and the cells were cultured for 7 days. Subsequently, differentiation of C3H10T1/2 into osteoblasts was determined using an increase of the alkaline phosphatase activity in the cells as an index. The cells were washed once with PBS. One-hundred microliters of a reaction substrate solution (100 mM diethanolamine buffer pH 10.0, 2 mM magnesium chloride, 1 mM p-nitrophenyl phosphoric acid) was added thereto, and the reaction was carried out at 37° C. for 30 minutes. Next, 100 μl of 0.2 N sodium hydroxide was added thereto to stop the reaction, and the amount of p-nitrophenol which was released was determined with an absorbance at 405 nm. The alkaline phosphatase activity when a sample was added was expressed by setting as a control one without addition of the sample, wherein the alkaline phosphatase activity of the control was defined as 100%. The activity indicates an induction activity of differentiation into osteoblasts. The experiments were carried out twice, and the average value was taken.

[3] = 10 μg/ml, control = 100% (0.083 ng/ml)
[4] = 100 μg/ml, control = 100% (0.083 ng/ml carrageenans, 0.070 ng/ml low-molecular-weight heparin)
[5] = 500 μg/ml, control = 100% (0.201 ng/ml for 7-12SFd-F, 0.130 ng/ml for chondroitin sulfate B and pectic acid)
[6] = 1000 μg/ml, control = 100% (0.201 ng/ml for 7-12SFd-F, 0.130 ng/ml for chondroitin sulfate B and pectic acid)
[7] = 10 μg/ml, control = 100% (0.110 ng/ml)
[8] = 100 μg/ml, control = 100% (0.110 ng/ml)

## O=C(/C=C/c1ccc(O)c(O)c1)O[C@@H]1C[C@](O)(C(=O)O)C[C@@H](O)[C@H]1O [Chlorogenic Acid, chlorogenic acid]
[1]; 88.6 μg/ml, control = 100% (0.041 ng/ml)
  Enhancing Activity for BMP-2 Production: 319.5%
[1]; 177.2 μg/ml, control = 100% (0.041 ng/ml)
  Enhancing Activity for BMP-2 Production: 320.4%
[1]
  Enhancement of BMP-2 production (result in words): enhance BMP-2 production in a concentration-dependent manner

## Heparan sulfate
[2]; 10 μg/ml
  Alkaline Phosphatase Activity: 132.2%
[2]; 100 μg/ml
  Alkaline Phosphatase Activity: 178.0%
[2]; C3H10T1/2 cells
  Induction of differentiation into osteoblasts (result in words): induce differentiation into osteoblasts in a concentration-dependent manner

## carrageenan ι
[1]; [3]
  Enhancing Activity for BMP-2 Production: 201.2%
[1]; [4]
  Enhancing Activity for BMP-2 Production: 517.5%
[1]
  Enhancement of BMP-2 production (result in words): enhance BMP-2 production in a concentration-dependent manner

## carrageenan κ
[1]; [3]
  Enhancing Activity for BMP-2 Production: 219.3%
[1]; [4]
  Enhancing Activity for BMP-2 Production: 263.3%
[1]
  Enhancement of BMP-2 production (result in words): enhance BMP-2 production in a concentration-dependent manner

## carrageenan λ
[1]; [3]
  Enhancing Activity for BMP-2 Production: 359.6%
[1]; [4]
  Enhancing Activity for BMP-2 Production: 485.5%
[1]
  Enhancement of BMP-2 production (result in words): enhance BMP-2 production in a concentration-dependent manner

## chondroitin sulfate B
[1]; [5]
  Enhancing Activity for BMP-2 Production: 524.5%
[1]; [6]
  Enhancing Activity for BMP-2 Production: 846.2%
[1]
  Enhancement of BMP-2 production (result in words): enhance BMP-2 production in a concentration-dependent manner

## dextran sulfate
[1]; [7]
  Enhancing Activity for BMP-2 Production: 2789%
[1]; [8]
  Enhancing Activity for BMP-2 Production: 2984%
[1]
  Enhancement of BMP-2 production (result in words): enhance BMP-2 production in a concentration-dependent manner

## heparin
[1]; [7]
  Enhancing Activity for BMP-2 Production: 435.1%
[1]; [8]
  Enhancing Activity for BMP-2 Production: 1339%
[1]
  Enhancement of BMP-2 production (result in words): enhance BMP-2 production in a concentration-dependent manner

## low-molecular-weight heparin
[1]; [4]
  Enhancing Activity for BMP-2 Production: 390.0%
[1]; 1000 μg/ml, control = 100% (0.070 ng/ml)
  Enhancing Activity for BMP-2 Production: 807.1%
[1]
  Enhancement of BMP-2 production (result in words): enhance BMP-2 production in a concentration-dependent manner

## pectic acid
[1]; [5]
  Enhancing Activity for BMP-2 Production: 220.3%
[1]; [6]
  Enhancing Activity for BMP-2 Production: 242.1%
[1]
  Enhancement of BMP-2 production (result in words): enhance BMP-2 production in a concentration-dependent manner
